Test results taken from patent US8946270B2, “Amido-pyridyl ether compounds and compositions and their use against parasites” (Merial Limited, priority 2011, dated 2015).
Read-outs that look alike come from different tables or passages of the source.

Columns and labels:
Experiment in all cases: whole plant or invertebrate
Haematobia irritans = conditions: 5 μg/cm^2; for mortality at 5 µg/cm2: Haematobia irritans, read-out: Contact SP Horn Fly PCT Mortality (%)
Description: (§1) A solution of the test compound was used to treat a filter paper contained within a Petri dish and the filter paper was allowed to evaporate to dryness. A small piece of absorbent cotton moistened with 10% sucrose and ten adult flies (Haematobia irritans or Stomoxys calcitrans) were added to each dish. Dishes were capped and held at room temperature. Assessments were performed at 4 and 24 hours after infestation in comparison with untreated controls.

Stomoxys calcitrans = conditions: 5 μg/cm^2; for mortality at 5 µg/cm2: Stomoxys calcitrans, read-out: Contact SP Stable Fly PCT Mortality
Description: as §1

[1] = tested on: Rhipicephalus sanguineus (Brown Dog Tick); conditions: for mortality at 200 ppm: Rhipicephalus sanguineus, read-out: Contact SP Rhicicep PCT Mortality (%); for Contact SP Rhicicep PCT Mortality (%): 200 ppm
Source text: A solution of the test compound was used to coat the inner wall of glass vials and to treat two filter papers. Once dried, one filter paper was placed in the cap of the vial and the other in the bottom of the vial. Each treated vial was infested with 10 adult Rhipicephalus sanguineus (Brown Dog Tick). […]

Ctenocephalides felis = conditions: 72 hr; for mortality at 200 ppm: Ctenocephalides felis, read-out: Assay: Minilnge Organism: C. felis Test Parameter: PCT Mortal; for Assay: Minilnge Organism: C. felis Test Parameter: PCT Mortal: Dose: 200 ppm

SMILES	mortality at 5 µg/cm2 (Haematobia irritans; timepoint 4 hrs)	mortality at 5 µg/cm2 (Haematobia irritans; timepoint 24 hrs)	mortality at 200 ppm ([1]; timepoint 4 hrs)	mortality at 200 ppm ([1]; timepoint 24 hrs)	Contact SP Horn Fly PCT Mortality (%) (Haematobia irritans; timepoint 4 hrs)	Contact SP Horn Fly PCT Mortality (%) (Haematobia irritans; timepoint 24 hrs)	also measured
CC(C)CNC(=O)c1ccc(COc2cccc(C(F)(F)F)c2)cn1 [Compound 5]	100%	100%	50%	80%	–	–	mortality at 5 µg/cm2 (Stomoxys calcitrans; 4 hrs): 70%; mortality at 5 µg/cm2 (Stomoxys calcitrans; 24 hrs): 90%
CC(C)CNC(=O)c1ccc(COc2ccc(OC(F)(F)F)cc2)cn1 [Compound 10]	90%	90%	0%	100%	–	–	–
CC(C)CNC(=O)c1ccc(CCOc2cccc(OC(F)(F)F)c2)cn1 [Compound 12]	80%	100%	–	–	–	–	mortality at 5 µg/cm2 (Stomoxys calcitrans; 4 hrs): 50%; mortality at 5 µg/cm2 (Stomoxys calcitrans; 24 hrs): 90%
O=C(NCC1CCOCC1)c1ccc(COc2ccc(OC(F)(F)F)cc2)cn1 [Compound 24]	50%	70%	0%	0%	–	–	mortality at 200 ppm (Ctenocephalides felis): 0%
O=C(NCC1CC1)c1ccc(COc2ccc(OC(F)(F)F)cc2)cn1 [Compound 33]	100%	100%	100%	100%	–	–	mortality at 5 µg/cm2 (Stomoxys calcitrans; 4 hrs): 80%; mortality at 5 µg/cm2 (Stomoxys calcitrans; 24 hrs): 80%
COC(CNC(=O)c1ccc(COc2cccc(OC(F)(F)F)c2)cn1)OC [Compound 44]	80%	80%	100%	100%	–	–	–
O=C(NCC1CC1)c1ccc(COc2cccc(OC(F)(F)F)c2)cn1 [Compound 52]	–	–	–	–	80%	80%	Contact SP Stable Fly PCT Mortality (Stomoxys calcitrans; 4 hrs): 60%; Contact SP Stable Fly PCT Mortality (Stomoxys calcitrans; 24 hrs): 80%
CC(C)CNC(=O)c1ccc(COc2cccc(OC(F)(F)F)c2)cn1 [Compound 54]	100%	100%	0%	100%	–	–	–
CCC(C)CNC(=O)c1ccc(COc2cccc(OC(F)(F)F)c2)cn1 (stereo not drawn) [Compound 57]	–	–	–	–	70%	80%	–
Cc1cccc(OCc2ccc(C(=O)NCC3CC3)nc2)c1 [Compound 61]	–	–	–	–	90%	90%	–
Cc1cccc(OCc2ccc(C(=O)NCC(C)C)nc2)c1 [Compound 63]	–	–	–	–	100%	100%	Contact SP Stable Fly PCT Mortality (Stomoxys calcitrans; 4 hrs): 80%; Contact SP Stable Fly PCT Mortality (Stomoxys calcitrans; 24 hrs): 80%; Contact SP Rhicicep PCT Mortality (%) ([1]; timepoint 4 hrs): 100%; Contact SP Rhicicep PCT Mortality (%) ([1]; timepoint 24 hrs): 100%
CCc1cccc(OCc2ccc(C(=O)NCC(OC)OC)nc2)c1 [Compound 65]	–	–	80%	100%	–	–	mortality at 5 µg/cm2 (Stomoxys calcitrans; 4 hrs): 50%; mortality at 5 µg/cm2 (Stomoxys calcitrans; 24 hrs): 60%
CCc1cccc(OCc2ccc(C(=O)NCC3CC3)nc2)c1 [Compound 73]	–	–	–	–	100%	100%	–
C=C(C)CNC(=O)c1ccc(COc2cccc(CC)c2)cn1 [Compound 76]	0%	0%	80%	100%	–	–	–
CCc1cccc(OCc2ccc(C(=O)NCC(C)C)nc2)c1 [Compound 77]	100%	100%	100%	100%	–	–	mortality at 5 µg/cm2 (Stomoxys calcitrans; 4 hrs): 60%; mortality at 5 µg/cm2 (Stomoxys calcitrans; 24 hrs): 80%
O=C(NCC1CC1)c1ccc(COc2ccc(C(F)(F)F)cc2)cn1 [Compound 95]	–	–	–	–	50%	70%	–
COC(CNC(=O)c1ccc(COc2cc(F)cc(Br)c2)cn1)OC [Compound 107]	0%	0%	0%	70%	–	–	mortality at 200 ppm (Ctenocephalides felis): 90%
N#CCCNC(=O)c1ccc(COc2cc(F)cc(Br)c2)cn1 [Compound 108]	100%	100%	70%	70%	–	–	mortality at 5 µg/cm2 (Stomoxys calcitrans; 4 hrs): 0%; mortality at 5 µg/cm2 (Stomoxys calcitrans; 24 hrs): 0%

SMILES	mortality at 5 µg/cm2 (Haematobia irritans; timepoint 4 hrs)	mortality at 5 µg/cm2 (Haematobia irritans; timepoint 24 hrs)	mortality at 200 ppm ([1]; timepoint 4 hrs)	mortality at 200 ppm ([1]; timepoint 24 hrs)	Contact SP Horn Fly PCT Mortality (%) (Haematobia irritans; timepoint 4 hrs)	Contact SP Horn Fly PCT Mortality (%) (Haematobia irritans; timepoint 24 hrs)	also measured
CSCCNC(=O)c1ccc(COc2cc(F)cc(Br)c2)cn1 [Compound 115]	–	–	–	–	0%	60%	–
O=C(NCC1CC1)c1ccc(COc2cc(F)cc(Br)c2)cn1 [Compound 119]	–	–	–	–	80%	100%	Contact SP Stable Fly PCT Mortality (Stomoxys calcitrans; 4 hrs): 60%; Contact SP Stable Fly PCT Mortality (Stomoxys calcitrans; 24 hrs): 70%
O=C(NCCc1ccccn1)c1ccc(COc2cc(F)cc(Br)c2)cn1 [Compound 121]	–	–	–	–	80%	80%	–
O=C(NC1CCC1)c1ccc(COc2cc(F)cc(Br)c2)cn1 [Compound 122]	–	–	–	–	0%	0%	Contact SP Rhicicep PCT Mortality (%) ([1]; timepoint 4 hrs): 0%; Contact SP Rhicicep PCT Mortality (%) ([1]; timepoint 24 hrs): 80%
CN(C)CC(C)(C)CNC(=O)c1ccc(COc2cc(F)cc(Br)c2)cn1 [Compound 124]	100%	100%	70%	70%	–	–	–
CC(C)CNC(=O)c1ccc(COc2cc(F)cc(Br)c2)cn1 [Compound 125]	100%	100%	–	–	–	–	–
CCCCNC(=O)c1ccc(COc2cc(F)cc(Br)c2)cn1 [Compound 127]	70%	70%	90%	100%	–	–	–
CC(C)CCNC(=O)c1ccc(COc2cc(F)cc(Br)c2)cn1 [Compound 129]	40%	40%	–	–	–	–	–
CC(C)CNC(=O)c1ccc(COCc2cccc(OC(F)(F)F)c2)cn1 [Compound 132]	–	–	–	–	100%	100%	–
CC(C)CNC(=O)c1ccc(COCc2ccc(OC(F)(F)F)cc2)cn1 [Compound 133]	80%	80%	–	–	–	–	–
O=C(NCC1CC1)c1ccc(COc2cccc(-c3cccc(F)c3)c2)cn1 [Compound 176]	–	–	–	–	–	–	Contact SP Rhicicep PCT Mortality (%) ([1]; timepoint 4 hrs): 90%; Contact SP Rhicicep PCT Mortality (%) ([1]; timepoint 24 hrs): 100%; Assay: Minilnge Organism: C. felis Test Parameter: PCT Mortal (Ctenocephalides felis): 70%
CCCNC(=O)c1ccc(COc2cccc(-c3cccc(F)c3)c2)cn1 [Compound 177]	–	–	–	–	–	–	Contact SP Rhicicep PCT Mortality (%) ([1]; timepoint 4 hrs): 80%; Contact SP Rhicicep PCT Mortality (%) ([1]; timepoint 24 hrs): 90%; Assay: Minilnge Organism: C. felis Test Parameter: PCT Mortal (Ctenocephalides felis): 40%
C=C(C)CNC(=O)c1ccc(COc2cccc(-c3cccc(F)c3)c2)cn1 [Compound 179]	–	–	–	–	–	–	Contact SP Rhicicep PCT Mortality (%) ([1]; timepoint 4 hrs): 100%; Contact SP Rhicicep PCT Mortality (%) ([1]; timepoint 24 hrs): 100%; Assay: Minilnge Organism: C. felis Test Parameter: PCT Mortal (Ctenocephalides felis): 70%
COC(CNC(=O)c1ccc(COc2cccc(-c3ccccc3)c2)cn1)OC [Compound 185]	–	–	–	–	–	–	Assay: Minilnge Organism: C. felis Test Parameter: PCT Mortal (Ctenocephalides felis): 90%
C=C(C)CNC(=O)c1ccc(COc2cccc(-c3ccccc3)c2)cn1 [Compound 197]	–	–	–	–	–	–	Assay: Minilnge Organism: C. felis Test Parameter: PCT Mortal (Ctenocephalides felis): 90%
CC(C)CNC(=O)c1ccc(COc2cccc(-c3ccccc3)c2)cn1 [Compound 198]	–	–	–	–	–	–	Contact SP Rhicicep PCT Mortality (%) ([1]; timepoint 4 hrs): 100%; Contact SP Rhicicep PCT Mortality (%) ([1]; timepoint 24 hrs): 100%; Assay: Minilnge Organism: C. felis Test Parameter: PCT Mortal (Ctenocephalides felis): 90%
O=C(NCC1CC1)c1ccc(CCOc2cccc(C(F)(F)F)c2)cn1 [Compound 208]	–	–	–	–	100%	100%	–
O=C(NCC1CC1)c1ccc(CCOc2cccc(OC(F)(F)F)c2)cn1 [Compound 243]	–	–	100%	100%	–	–	mortality at 200 ppm (Ctenocephalides felis): 80%
